# In patent US7271198B2, “Method of treating autoimmune diseases” (Wake Forest University, priority 2000, dated 2007):
# Several values for one entry are separate records, joined by “and”; a condition that tells them apart may be missing. Equal entries are not always repeated.
# Experiments:
# MRL/lpr mice = test: In vivo TSA in 26 week old MRL/lpr mice (5 mg/kg s.c. daily), proteinuria; parameters: species or system mouse
# From the text: The effect of TSA on proteinuria and nitric oxide secretion and increased survival in 26 week old MRL/lpr mice was examined. In this age group, MRL/lpr mice developed full-blown disease with evidence of proliferative immune-complex-mediated glomerulo-nephritis, vasculitis, arthritis, and massive lymphadenopathy. Most of the mice expired by the age of 30 weeks. […] Urine was collected for a 24 hr time period on days 0, 7 and 14, and measured for protein and nitric oxide. Toxicity of TSA is being assessed by monitoring body weight, infection, abnormal behavior and survival of treated mice.
# IL-6 protein = IL-6 protein secretion by MRL/lpr splenocytes; type: cell-based, mouse; conditions: splenocytes with LPS and IFN-γ 72 hr; stimulated control 34.4±7.6 pg/ml; p=0.002
# Procedure: In determining whether TSA or SAHA down-regulate IL-6 mRNA content, splenocytes from 24-wk MRL/lpr mice were treated with increasing concentrations of TSA for 18 hr. […] TSA decreased IL-6 transcript at a concentration of 100 ng/ml and exerted maximal inhibition at 300 ng/ml. To address whether TSA and SAHA down-regulate LPS- and IFN-γ induced IL-6 transcript levels, splenocytes from younger MRL/lpr mice were treated in the absence or presence of TSA or SAHA for 18 hr before LPS and IFN-γ stimulation for 6 or 18 hr. […] Next, the effect of TSA and SAHA on IL-6 protein secretion in stimulated splenocytes was measured (FIG. 10D). When splenocytes were cultured with LPS and IFN-γ for 72 hr, there was a mean (±SEM) 34.4±7.6 pg/ml of IL-6 protein secretion.
# [1] = system: acetylated H3 and H4 histones; test: Immunoblot of acetylated H3 and H4 histones in MRL/lpr splenocytes; type: cell-based, mouse; conditions: 18 hr exposure
# From the text: One mechanism by which HDIs suppress transcription of cytokine genes in MRL/lpr splenocytes may be by increasing accumulation of acetylated histones which may result in chromatin remodeling. The accumulation of acetylated histones H3 and H4 in HDI-treated splenocytes was quantified to test this hypothesis. FIG. 12 is an immunoblot analysis of the acetylation levels of H3 and H4 histones.
# SP1 binding = SP1 binding at TGF-β1 promoter; type: cell-based, human; conditions: after treatment with TSA
# From the text: Exposure of SLE PBMCs to TSA and SAHA yielded an eight-fold increase in TGF-β1 transcript and a 30% rise in the synthesis of TGF-β1 protein. This enhanced transcriptional activation was temporally associated with increased acetylation of both H3 and H4 nucleosomal histones. […] The increase in total acetylated histones was not global; neither GAPDH nor G6PD genes were transcriptionally activated. […] Thus, the capacity of HDIs to increase the endogenous synthesis of TGF-β1 raises the possibility that these inhibitors could be therapeutic candidates for the treatment of SLE, atherosclerosis, and osteoporosis in addition to cancers.
# IL-12 p40 protein = IL-12 p40 protein secretion by MRL/lpr splenocytes; type: cell-based, mouse; conditions: splenocytes stimulated with LPS and IFN-γ 24 hr; stimulated control 45.3±9.1; p=0.003
# Procedure: When splenocytes were activated with LPS (100 μg/ml) and IFN-γ 100U/ml) for 24 hr the mean (±SEM) IL-12 p40 secretion was 45.3±9.1 pg/ml.
# TGF-β1 protein = TGF-β1 protein secretion by PBMCs; type: cell-based, human
# Procedure: Gene expression of TGF-β1 was tested to determine if the gene expression is suppressed by deacetylation of histones in SLE. In this determination, SLE PBMCs or isolated T cells were treated with the histone deacetylase inhibitors (HDIs), TSA or SAHA, for 18hr. […] Subsequently, semi-quantitative PCR was performed to determine the amounts of […] transcripts in SLE and control T cells treated with vehicle or TSA (1000 ng/ml). […] There is no change in GAPDH transcript in normal and SLE T cells after treatment of HDIs. Increased TGF-β1 transcript was associated with a subsequent increase in TGF-β1 protein secretion by SLE PBMCs. When compared to vehicle treated PBMCs, total TGF-β1 protein in culture supernatants from SLE PBMCs increased by approximately 30%. In contrast, there was no increase in total TGF-β1 secretion in TSA treated cells in normal healthy controls. Similar results may be obtained by SAHA.
# IFN-γ mRNA = IFN-γ mRNA in MRL/lpr splenocytes; type: cell-based, mouse
# Procedure: In determining whether TSA can down-regulate IFN-γ mRNA, splenocytes from older, 24-wk MRL/lpr mice were treated with 0 to 500 ng/ml of TSA for 18 hr. […] Compared to splenocytes from 10-wk old mice that had low IFN-γ mRNA (FIG. 8B, lane 1), older mice had higher constitutive levels of IFN-γ transcripts normalized to the housekeeping gene, GAPDH (FIG. 8A, lane 1). […] Maximal inhibition of IFN-γ transcript consistently occurred at 500 ng/ml of TSA.
# To establish whether TSA or SAHA down-regulates Con A-induced IFN-γ mRNA expression, splenocytes from 10-wk old mice were stimulated with Con A (10 μg/ml) for 18 hr. From previous kinetic studies, IFN-γ mRNA is maximally expressed when T cells are activated for 18 hr. […] Thus, both TSA and SAHA inhibit IFN-γ. mRNA up-regulation in response to mitogenic stimulation.
# IL-10 mRNA = IL-10 mRNA in MRL/lpr splenocytes; type: cell-based, mouse
# Procedure: In investigating whether TSA down-regulates IL-10 mRNA, MRL/lpr splenocytes were treated with increasing concentrations of TSA. The heightened, constitutive expression of IL-10 mRNA confirms previous findings (FIGS. 11A & 11B, lane 1). […] To address whether TSA and SAHA down-regulate LPS- and IFN-γ induced IL-10 transcript, splenocytes from 10-wk old MRL/lpr mice were treated in the absence or presence of TSA or SAHA for 18 hr before LPS and IFN-γ stimulation for 6 or 18 hr.
structure (smiles),measurement,setting,value
"CC(/C=C/C(=O)NO)=C\[C@@H](C)C(=O)c1ccc(N(C)C)cc1 [TSA, Trichostatin A]",proteinuria in day 7 and day 14 compared to day 0,"MRL/lpr mice; 26 week old MRL/lpr mice, 5 mg/kg TSA s.c. daily, in comparison to vehicle",less proteinuria
same,"Proteinuria, DAY 0","MRL/lpr mice; individual 26 week old MRL/lpr mice of TSA group, day 0 (baseline), 24 hr urine",964 µg/day and 10 µg/day and 16689 µg/day and 213 µg/day and 14420 µg/day and 107 µg/day and 5 µg/day
same,"Proteinuria, DAY 7","MRL/lpr mice; individual 26 week old MRL/lpr mice, 5 mg/kg TSA s.c. daily, day 7, 24 hr urine, 5 mg/kg",340 µg/day and 4.6 µg/day and 274 µg/day and 54 µg/day and 4701 µg/day and 80 µg/day and 9 µg/day
same,"Proteinuria, DAY 14","MRL/lpr mice; individual 26 week old MRL/lpr mice, 5 mg/kg TSA s.c. daily, day 14, 24 hr urine, 5 mg/kg",242 µg/day and 4.3 µg/day and 865 µg/day and 82 µg/day and 3081 µg/day and 25 µg/day and 10 µg/day
same,IL-6 protein secretion,IL-6 protein,no detectable IL-6 protein secretion
same,accumulation of acetylated H3 and H4 histones,[1],marked increase
same,SP1 binding after localized acetylation of the TGF-β1 promoter,SP1 binding,not associated with a concomitant increase
same,IL-12 p40 secretion (mean±SEM),IL-12 p40 protein,1.5 ± 1.4 pg/mL
same,rise in the synthesis of TGF-β1 protein,TGF-β1 protein; SLE PBMCs exposed to TSA and SAHA (summary statement),30%
same,increase of total TGF-β1 protein in culture supernatants,"TGF-β1 protein; SLE PBMCs, compared to vehicle treated PBMCs",approximately 30%
same,total TGF-β1 secretion,TGF-β1 protein; TSA treated cells of normal healthy controls,no increase
same,Con A-induced up-regulation of IFN-γ transcript,"IFN-γ mRNA; splenocytes from 10-wk old mice preincubated 18 hr, Con A 10 μg/ml 18 hr, vs vehicle",markedly reduced
same,TSA concentration of maximal inhibition of IFN-γ transcript,"IFN-γ mRNA; splenocytes from 24-wk MRL/lpr mice, 0 to 500 ng/ml TSA, 18 hr",500 ng/mL
same,TSA dose that down-regulated IL-10 mRNA,"IL-10 mRNA; MRL/lpr splenocytes, constitutive expression",300 ng/mL
same,LPS- and IFN-γ induced IL-10 mRNA,"IL-10 mRNA; splenocytes from 10-wk old MRL/lpr mice pretreated 18 hr, stimulated 6 or 18 hr",no detectable IL-10 mRNA
